The structures appear in SMILES notation.

Data set [1] concerns Human immunodeficiency virus 1. Put plainly: Antiviral activity against HIV-1 harboring RT K103N/Y181C double mutant infected in human MT4 cells assessed as protection against virus-induced cytopathic effect incubated for 5 days by MTT assay. Format: functional, organism-based. The conditions noted are these: Human immunodeficiency virus 1, MT4, 120 h.
In data set [2] the test system is Human immunodeficiency virus 1. Description: Antiviral activity against wildtype HIV-1 IIIB infected in human MT4 cells assessed as protection against virus-induced cytopathic effect incubated for 5 days by MTT assay. Format: functional, organism-based. To be noted: Human immunodeficiency virus 1, IIIB, MT4, 120 h.
In data set [3] the target is Human immunodeficiency virus type 1 reverse transcriptase (Human immunodeficiency virus 1, UniProt Q72547). Description: Inhibition of recombinant wild type HIV-1 Reverse transcriptase incubated for 40 mins by Pico-green reagent based fluorescence analysis.
The subject of data set [4] is Human immunodeficiency virus 1. Description: Antiviral activity against HIV-1 harboring RT L100I mutant infected in human MT4 cells assessed as protection against virus-induced cytopathic effect incubated for 5 days by MTT assay. To be noted: Human immunodeficiency virus 1, MT4, 120 h. Format: functional, organism-based.
The nature of data set [5]: Cytotoxicity against human MT4 cells assessed as reduction in cell viability measured after 5 days by MTT assay.
Data set [6] relates to Human immunodeficiency virus 1. Description: Antiviral activity against HIV-1 harboring RT E138K mutant infected in human MT4 cells assessed as protection against virus-induced cytopathic effect incubated for 5 days by MTT assay. The class given is functional, organism-based. To be noted: Human immunodeficiency virus 1, MT4, 120 h.
Data set [7] can be described thus: Metabolic stability in human liver microsomes assessed as half-life at 0.1 uM preincubated for 10 mins followed by NADPH addition and measured upto 60 mins by LC-MS/MS analysis. Format: ADME, Microsome. The conditions noted are these: time < 70 min.
Data set [8] has as its system Human immunodeficiency virus 1. Description: Antiviral activity against HIV-1 harboring RT F227L/V106A double mutant infected in human MT4 cells assessed as protection against virus-induced cytopathic effect incubated for 5 days by MTT assay. Format: functional, organism-based. The conditions noted are these: Human immunodeficiency virus 1, MT4, 120 h.
Data set [9] relates to Human immunodeficiency virus 1. Put plainly: Antiviral activity against HIV-1 harboring RT K103N mutant infected in human MT4 cells assessed as protection against virus-induced cytopathic effect incubated for 5 days by MTT assay. Format: functional, organism-based. The conditions noted are these: Human immunodeficiency virus 1, MT4, 120 h.
The nature of data set [10]: Metabolic stability in rat liver microsomes assessed as half-life at 0.1 uM preincubated for 10 mins followed by NADPH addition and measured upto 60 mins by LC-MS/MS analysis. The class given is ADME, Microsome. To be noted: time < 70 min.
Data set [11] has as its system Human immunodeficiency virus 1. Put plainly: Antiviral activity against HIV-1 harboring RT Y181C mutant infected in human MT4 cells assessed as protection against virus-induced cytopathic effect incubated for 5 days by MTT assay. Format: functional, organism-based. The conditions noted are these: Human immunodeficiency virus 1, MT4, 120 h.
Data set [12] concerns Human immunodeficiency virus 1. Description: Antiviral activity against HIV-1 harboring RT Y188L mutant infected in human MT4 cells assessed as protection against virus-induced cytopathic effect incubated for 5 days by MTT assay. Format: functional, organism-based. To be noted: Human immunodeficiency virus 1, MT4, 120 h.
Data set [13] in a line: MRT (0 to t) in male Sprague-Dawley rat at 1 mg/kg, iv measured after 24 hrs by LC-MS analysis. The class given is ADME, organism-based. To be noted: in vivo.
The nature of data set [14]: Solubility of compound in phosphate buffer at pH 7.0 measured after 24 hrs by HPLC analysis. The class given is physicochemical.
A short description of data set [15]: AUC (0 to t) in male Sprague-Dawley rat at 10 mg/kg, po measured after 24 hrs by LC-MS analysis. To be noted: in vivo. Format: ADME, organism-based.
The nature of data set [16]: Oral bioavailability in male Sprague-Dawley rat at 10 mg/kg measured after 24 hrs by LC-MS analysis. The class given is ADME, organism-based. The conditions noted are these: in vivo.
Data set [17] in a line: Tmax in male Sprague-Dawley rat at 1 mg/kg, iv measured after 24 hrs by LC-MS analysis. Format: ADME, organism-based. To be noted: in vivo.
The nature of data set [18]: Solubility of compound in Watson's distilled pure water measured after 24 hrs by HPLC analysis. The class given is physicochemical.
The nature of data set [19]: Cmax in male Sprague-Dawley rat at 10 mg/kg, po measured after 24 hrs by LC-MS analysis. To be noted: in vivo. The class given is ADME, organism-based.
A short description of data set [20]: Solubility of compound in phosphate buffer at pH 7.4 measured after 24 hrs by HPLC analysis. Format: physicochemical.
Data set [21] is described as follows: Clearance in male Sprague-Dawley rat at 1 mg/kg, iv measured after 24 hrs by LC-MS analysis. To be noted: in vivo. The class given is ADME, organism-based.
Data set [22] is described as follows: Tmax in male Sprague-Dawley rat at 10 mg/kg, po measured after 24 hrs by LC-MS analysis. Format: ADME, organism-based. To be noted: in vivo.
Data set [23] is described as follows: Solubility of compound in phosphate buffer at pH 2.0 measured after 24 hrs by HPLC analysis. The class given is physicochemical.
A short description of data set [24]: MRT (0 to infinity) in male Sprague-Dawley rat at 1 mg/kg, iv measured after 24 hrs by LC-MS analysis. To be noted: in vivo. Format: ADME, organism-based.
A short description of data set [25]: AUC (0 to t) in male Sprague-Dawley rat at 1 mg/kg, iv measured after 24 hrs by LC-MS analysis. The class given is ADME, organism-based. The conditions noted are these: in vivo.
Data set [26] can be described thus: AUC (0 to infinity) in male Sprague-Dawley rat at 1 mg/kg, iv measured after 24 hrs by LC-MS analysis. The class given is ADME, organism-based. To be noted: in vivo.
A short description of data set [27]: Cmax in male Sprague-Dawley rat at 1 mg/kg, iv measured after 24 hrs by LC-MS analysis. The conditions noted are these: in vivo. The class given is ADME, organism-based.
Data set [28] can be described thus: Half-life in male Sprague-Dawley rat at 1 mg/kg, iv measured after 24 hrs by LC-MS analysis. The conditions noted are these: in vivo. Format: ADME, organism-based.
A short description of data set [29]: AUC (0 to infinity) in male Sprague-Dawley rat at 10 mg/kg, po measured after 24 hrs by LC-MS analysis. The class given is ADME, organism-based. The conditions noted are these: in vivo.
Data set [30] is described as follows: MRT (0 to infinity) in male Sprague-Dawley rat at 10 mg/kg, po measured after 24 hrs by LC-MS analysis. The class given is ADME, organism-based. To be noted: in vivo.
The nature of data set [31]: MRT (0 to t) in male Sprague-Dawley rat at 10 mg/kg, po measured after 24 hrs by LC-MS analysis. The class given is ADME, organism-based. The conditions noted are these: in vivo.
The nature of data set [32]: Half-life in male Sprague-Dawley rat at 10 mg/kg, po measured after 24 hrs by LC-MS analysis. Format: ADME, organism-based. To be noted: in vivo.
Data set [33] in a line: Metabolic stability in dog liver microsomes assessed as half-life at 0.1 uM preincubated for 10 mins followed by NADPH addition and measured upto 60 mins by LC-MS/MS analysis. The class given is ADME, Canis lupus familiaris, Microsome. The conditions noted are these: time < 70 min.
Data set [34] can be described thus: Selectivity index, ratio of CC50 for human MT4 cells to EC50 for wild type HIV-1 IIIB infected in human MT4 cellS. The conditions noted are these: MT4 cells.

As to `N#Cc1ccc(Nc2nccc(Nc3c(F)cc(-c4ccncc4)cc3F)n2)cc1`, the EC50 is 64 nM in data set [1]; 2 nM in data set [2]; 4 nM in data set [4]; 10 nM in data set [6]; 299 nM in [8]; 2 nM in [9]. For the same compound, the EC50 in data set [11] amounted to 6 nM; in [12], 57 nM. Besides, the IC50 in data set [3] is 31 nM. For the same compound, in data set [5] (mt4), the CC50 at 120 h was found to be 6000 nM. Moreover, the half-life at 0.1 µM in data set [7] amounted to 0.16 h; in data set [10], 0.217 h.
For `Cc1cc(-c2ccncc2)cc(C)c1Nc1nc(Nc2ccc(C#N)cc2)ncc1-c1cn[nH]c1.Cl`, the values for the MRT last at 24 h in data set [13] and in [31] were 1.1 h and 3.04 h, respectively. Further, the solubility at 24 h in [14] is < 1 µg/mL; in data set [18], 366 µg/mL; in [20] it was < 1 µg/mL; in [23] it was 782 µg/mL. Besides, the AUC(0-t) at 24 h in [15] came out at 3460 ng·h/mL; in data set [25] it was 600 ng·h/mL. In data set [16], this compound registered a bioavailability of 57.4%. The Tmax in [17] stood at 4.8 min; in data set [22], 1 h. Besides, the Cmax in data set [19] was determined as 862 ng/mL; in data set [27] it was 572 ng/mL. For the same compound, the clearance in data set [21] is 30.3 mL/min/kg. The MRT inf in [24] is 1.14 h; in data set [30] it was 3.14 h. The AUC(0-inf) in data set [26] worked out at 605 ng·h/mL; in [29], 3470 ng·h/mL. Further, the half-life is 0.84 h in data set [28] and 2.92 h in data set [32].
Take `Cc1cc(C#N)cc(C)c1Oc1nc(Nc2ccc(C#N)cc2)nc(N)c1Br` [ETRAVIRINE]: the concentration for a half-maximal effect (EC50) was determined as 43 nM in data set [1]; 4 nM in data set [4]; 12 nM in data set [8]; 13 nM in [11]; 17 nM in data set [12]. In addition, the solubility at 24 h in data set [14], in [18] and in data set [20] was < 1 µg/mL throughout. Further, the figures for the half-life at 0.1 µM in [33], in data set [7] and in data set [10] were 2.53 h, 1.07 h and 0.225 h, respectively. For the same compound, the 50% cytotoxic concentration (CC50) at 120 h in data set [5] (MT4 cells) is > 4610 nM.
On to `Cc1cc(/C=C/C#N)cc(C)c1Nc1ccnc(Nc2ccc(C#N)cc2)n1` [RILPIVIRINE], for which the half-life at 0.1 µM in [33] stood at 1.32 h; in data set [7], 0.267 h; in data set [10], 0.121 h. For the same compound, in data set [2], the concentration giving a half-maximal response (EC50) is 4 nM. In addition, the half-maximal cytotoxic concentration (CC50) at 120 h in data set [5] (MT4 cells) is > 6350 nM.
For `Cc1cc(-c2ccncc2)cc(C)c1Nc1nc(Nc2ccc(C#N)cc2)ncc1-c1ccc(N)nc1`, the EC50 was found to be 156 nM in data set [1]; 8 nM in data set [2]; 39 nM in data set [4]; 11 nM in [6]; 1140 nM in [8]; 11 nM in data set [9]. Besides, the half-maximal effective concentration (EC50) stood at 41 nM in data set [11] and 50 nM in data set [12]. For the same compound, the IC50 in [3] worked out at 94 nM. Also, the 50% cytotoxic concentration (CC50) at 120 h in data set [5] (MT4 cells) was found to be 4870 nM. Besides, the selectivity ratio in [34] came to 575.
Consider `Cc1cc(-c2ccncc2)cc(C)c1Nc1nc(Nc2ccc(C#N)cc2)ncc1-c1cncc(N)c1`, for which the EC50 in [1] was 378 nM; in data set [2], 6 nM; in [4] it was 29 nM; in data set [6] it was 13 nM; in data set [8] it was 323 nM; in data set [9], 7 nM. Moreover, the concentration giving a half-maximal response (EC50) in data set [11] worked out at 51 nM; in data set [12] it was 63 nM. Moreover, the IC50 in data set [3] was determined as 73 nM. Moreover, the cytotoxic concentration (CC50) at 120 h in [5] (MT4 cells) was 6380 nM. Also, in data set [34], the selectivity ratio worked out at 1050.
As for `Cc1cc(-c2ccncc2)cc(C)c1Nc1nc(Nc2ccc(C#N)cc2)ncc1-c1ccsc1`, the EC50 stood at 259 nM in [1]; 6 nM in data set [2]; 34 nM in data set [4]; 43 nM in data set [6]; 453 nM in data set [8]; 8 nM in data set [9]. Besides, the EC50 is 41 nM in data set [11] and 47 nM in [12]. Also, the IC50 in data set [3] is 72 nM. Besides, the cytotoxic concentration (CC50) at 120 h in data set [5] (MT4 cells) is > 264000 nM. Also, the selectivity ratio in data set [34] is > 45200.
Regarding `Cc1cc(-c2ccncc2)cc(C)c1Nc1nc(Nc2ccc(C#N)cc2)ncc1-c1ccnc(Cl)c1`, the EC50 in [1] amounted to 597 nM; in [2], 6 nM; in data set [4] it was 55 nM; in data set [6] it was 26 nM; in data set [8] it was 1760 nM; in data set [9], 19 nM. In addition, the EC50 in data set [11] came out at 56 nM; in data set [12] it was 83 nM. Besides, the IC50 in data set [3] came out at 98 nM. In data set [5] (MT4 cells), the 50% cytotoxic concentration (CC50) at 120 h was determined as 158000 nM. Also, in data set [34], the selectivity ratio was 27300.
As for `Cc1cc(-c2ccncc2)cc(C)c1Nc1nc(Nc2ccc(C#N)cc2)ncc1-c1ccc(F)nc1`, the EC50 was 480 nM in data set [1]; 9 nM in [2]; 51 nM in data set [4]; 14 nM in data set [6]; 1160 nM in data set [8]; 9 nM in data set [9]. Also, the EC50 in [11] was determined as 48 nM; in data set [12], 76 nM. The IC50 in data set [3] came to 86 nM. The CC50 at 120 h in data set [5] (MT4 cells) was 48400 nM. For the same compound, in [34], the selectivity ratio stood at 5530.

Values taken from ChEMBL document CHEMBL6120973 (J Med Chem, 2024).
